Measured values published in ChEMBL document CHEMBL5543084, “Development of cannabidiol derivatives as potent broad-spectrum antibacterial agents with membrane-disruptive mechanism” (Eur J Med Chem, 2024).
Activity calls are given as the source filed them. The calls are words filed in the database; no cut-off is given here.

What was measured:
[1] = Hemolytic activity against rabbit blood cells incubated for 1 hr relative to control; format: toxicity, cell-based, Oryctolagus cuniculus, Erythrocyte; settings: rabbit blood cells (erythrocytes)
[2] = tested on: Escherichia coli; experiment: Antibacterial activity against Escherichia coli ATCC 25922 assessed as inhibition of bacterial growth incubated for 24 hrs in presence of 140 mM Na+ by broth dilution method; format: functional
[3] = tested on: Staphylococcus aureus; experiment: Antibacterial activity against Staphylococcus aureus ATCC 29213 assessed as inhibition of bacterial growth incubated for 24 hrs in presence of 2.5 mM Ca2+ by broth dilution method; format: functional
[4] = tested on: Escherichia coli; experiment: Antibacterial activity against Escherichia coli ATCC 25922 assessed as inhibition of bacterial growth incubated for 24 hrs in presence of 2.5 mM Ca2+ by broth dilution method; format: functional
[5] = tested on: Klebsiella pneumoniae; experiment: Antibacterial activity against Klebsiella pneumoniae ATCC 10031 assessed as inhibition of bacterial growth incubated for 24 hrs in presence of 2.5 mM Ca2+ by broth dilution method; format: functional
[6] = tested on: Klebsiella pneumoniae; experiment: Antibacterial activity against Klebsiella pneumoniae ATCC 10031 assessed as inhibition of bacterial growth incubated for 24 hrs in presence of 1 mM Mg2+ by broth dilution method; format: functional
[7] = tested on: Staphylococcus aureus; experiment: Antibacterial activity against Staphylococcus aureus ATCC 29213 assessed as inhibition of bacterial growth incubated for 24 hrs in presence of 4.5 mM K+ by broth dilution method; format: functional
[8] = tested on: Staphylococcus aureus; experiment: Antibacterial activity against methicillin-resistant Staphylococcus aureus NCTC 10442 assessed as inhibition of bacterial growth incubated for 24 hrs in presence of 4.5 mM K+ by broth dilution method; format: functional
[9] = tested on: Staphylococcus aureus; experiment: Antibacterial activity against methicillin-resistant Staphylococcus aureus NCTC 10442 assessed as inhibition of bacterial growth incubated for 24 hrs in presence of 19 uM Zn2+ by broth dilution method; format: functional
[10] = tested on: Escherichia coli; experiment: Antibacterial activity against Escherichia coli ATCC 25922 assessed as inhibition of bacterial growth incubated for 24 hrs in presence of 19 uM Zn2+ by broth dilution method; format: functional
[11] = tested on: Staphylococcus aureus; experiment: Antibacterial activity against Staphylococcus aureus ATCC 29213 assessed as inhibition of bacterial growth incubated for 24 hrs in presence of 20 uM Fe3+ by broth dilution method; format: functional
[12] = tested on: Klebsiella pneumoniae; experiment: Antibacterial activity against Klebsiella pneumoniae ATCC 10031 assessed as inhibition of bacterial growth incubated for 24 hrs in presence of 20 uM Fe3+ by broth dilution method; format: functional
[13] = Cytotoxicity against mouse fibroblast NCTC clone 929 cells assessed as viable cells at 25 microg/ml incubated for 24 hrs by CCK-8 assay; format: toxicity, cell-based; settings: NCTC clone 929 (L929) fibroblast cells, at 25 µg/mL, read-out: Activity
[14] = Cytotoxicity against human HepG2 cells assessed as viable cells at […] microg/ml incubated for 24 hrs by CCK-8 assay; format: toxicity, cell-based; settings: dose 1.56 µg/ml, read-out: Activity
[15] = Cytotoxicity against human HepG2 cells assessed as viable cells at 3.125 microg/ml incubated for 24 hrs by CCK-8 assay; format: toxicity, cell-based; settings: at 3.125 µg/mL, read-out: Activity
[16] = Cytotoxicity against human HepG2 cells assessed as viable cells at 25 microg/ml incubated for 24 hrs by CCK-8 assay; format: toxicity, cell-based; settings: at 25 µg/mL, read-out: Activity
[17] = tested on: Staphylococcus aureus; experiment: Bactericidal activity against methicillin-resistant Staphylococcus aureus NCTC 10442 assessed as bacterial reduction at 4 time of MIC concentration incubated for 2 hrs by time-kill assay; format: functional
[18] = tested on: Staphylococcus aureus; experiment: Bactericidal activity against methicillin-resistant Staphylococcus aureus NCTC 10442 assessed as bacterial killing at 4 time of MIC concentration incubated for 2 hrs by time-kill assay; format: functional
[19] = tested on: Staphylococcus aureus; experiment: Bactericidal activity against methicillin-resistant Staphylococcus aureus NCTC 10442 assessed as bacterial killing at 8 time of MIC concentration incubated for 1 hr by time-kill assay relative to control; format: functional
[20] = tested on: Staphylococcus aureus; experiment: Drug resistance, ratio of MIC for Staphylococcus aureus NCTC 10442 after 21 passages to MIC for Staphylococcus aureus NCTC 10442 during first exposure; format: functional
[21] = tested on: Cell membrane; experiment: Induction of cytoplasmic membrane permeabilization in Escherichia coli ATCC 25922 assessed as disruption of cell membrane integrity measured upto 60 mins by measuring increase in fluorescence intensity at 1 to 8 times of MIC concentration by SYTOX green dye based fluorescence analysis; format: cell membranes
[22] = tested on: Cell membrane; experiment: Induction of outer membrane permeabilization in Pseudomonas aeruginosa ATCC 9027 assessed as increase in fluorescence intensity at 1 to 8 times MIC concentration by NPN-dye based fluorescence analysis; format: cell membranes
[23] = tested on: Lipoteichoic acid; experiment: Displacement of BODIPY-TR-cadaverine from Bacillus subtilis lipoteichoic acid (LTA) assessed as increase in fluorescence intensity at 1 times MIC measured after 30 mins by fluorescence spectrophotometric analysis
[24] = tested on: Lipopolysaccharide (LPS); experiment: Displacement of BODIPY-TR-cadaverine from Escherichia coli lipopolysaccharide (LPS) assessed as increase in fluorescence intensity at 4 times MIC measured after 30 mins by fluorescence spectrophotometric analysis; format: subcellular
[25] = tested on: Staphylococcus aureus; experiment: Bactericidal activity against methicillin-resistant Staphylococcus aureus NCTC 10442 assessed as up-regulation of molecular functions related gene expression by measuring glutamate-ammonia ligase activity (GO:0004356) at 4 times of MIC concentration measured after 90 mins incubation by RNA sequencing (RNA-seq) study; format: functional, organism-based
[26] = tested on: Escherichia coli; experiment: Bactericidal activity against Escherichia coli ATCC 25922 assessed as down-regulation of intracellular sequestering of iron ion (GO:0006880) at 4 times of MIC concentration measured after 90 mins incubation by RNA sequencing (RNA-seq) study; format: functional, organism-based
[27] = tested on: Escherichia coli; experiment: Bactericidal activity against Escherichia coli ATCC 25922 assessed as change in xenobiotics biodegradation and metabolism gene expression at 4 times of MIC concentration measured after 90 mins incubation by RNA sequencing (RNA-seq) study; format: functional, organism-based
[28] = tested on: Staphylococcus aureus; experiment: Bactericidal activity against methicillin-resistant Staphylococcus aureus NCTC 10442 assessed as up regulation of alanine/aspartate and glutamate metabolism gene expression at 4 times of MIC concentration measured after 90 mins incubation by RNA sequencing (RNA-seq) study; format: functional, organism-based
[29] = tested on: Staphylococcus aureus; experiment: (§1) Bactericidal activity against methicillin-resistant Staphylococcus aureus NCTC 10442 assessed as change in cell death associated gene expression by measuring up-regulation of clfB, DX983_RS14825) and DX983_RS14235 gene expression at 4 times of MIC concentration measured after 90 mins incubation by RNA sequencing (RNA-seq) study; format: functional, organism-based
[30] = tested on: Escherichia coli; experiment: (§2) Bactericidal activity against Escherichia coli ATCC 25922 assessed as change in cell death associated gene expression by measuring down-regulation of LPS export ABC transporter periplasmic-encoding gene (lptC, D1792_RS12575) gene expression at 4 times of MIC concentration measured after 90 mins incubation by RNA sequencing (RNA-seq) study; format: functional, organism-based
[31] = tested on: Escherichia coli; experiment: as §2, with “the inner membrane protein-coding” for “LPS export ABC transporter periplasmic-encoding”, “(yqiJ, D1792_RS11855)” for “(lptC, D1792_RS12575)”; format: functional, organism-based
[32] = tested on: Staphylococcus aureus; experiment: as §1, with “metabolic stress” for “cell death”, “down-regulation” for “up-regulation”, “glucosaminidase domain-containing protein (atl, DX983_RS02250)” for “clfB, DX983_RS14825) and DX983_RS14235”; format: functional, organism-based; settings: NTCC 10442
[33] = tested on: Pseudomonas aeruginosa; experiment: In vivo antibacterial activity against Pseudomonas aeruginosa ATCC 9027 infected C57BL6 mouse corneal infection model assessed as reduction in bacterial burden at 3 mg/ml, TOP 4 times in a day for 2 consecutive days; format: functional; settings: time 2 day

C=C(C)[C@@H]1CCC(C)=C[C@H]1c1c(OCCCNC(=N)N)cc(CCCCC)cc1OCCCNC(=N)N
HC50 at 1 h [1]: > 200 µg/mL
MIC [2]: 3.12 µg/mL
MIC [3]: 1.56 µg/mL
MIC [4]: 3.12 µg/mL
MIC [5]: 6.25 µg/mL
MIC [6]: 6.25 µg/mL
MIC [7]: 0.78 µg/mL
MIC [8]: 0.39 µg/mL
MIC [9]: 0.39 µg/mL
MIC [10]: 0.78 µg/mL
MIC [11]: 0.39 µg/mL
MIC [12]: 3.12 µg/mL
viability at 24 h, 25 microg/ml [13]: 68.7%
viability at 24 h, 1.56 microg/ml [14]: 113%
viability at 24 h, 3.125 microg/ml [15]: 111%
viability at 24 h, 25 microg/ml [16]: 92.9%
Activity [17]: 3 log10FFU/ml
inhibition (INH) [18]: 99.9%
inhibition (INH) [19]: 100%
Ratio [20]: 4
Activity [21]: Active
Activity [22]: Dose-Dependent Effect
Activity [23]: 11.2%
Activity [24]: 76.5%
Activity [25]: Active
Activity [26]: Active
Activity [27]: Active
Activity [28]: Active
Activity [29]: Active
Activity [30]: Active
Activity [31]: Active
Activity [32]: Active
Activity [33]: 6.41 log10FFU/ml
